According to ChEMBL document CHEMBL1152560, “Substituted 2-arylbenzothiazoles as kinase inhibitors: hit-to-lead optimization” (Bioorg Med Chem, 2009):

Columns and labels:
[1] = target: T1, Testis-specific serine/threonine-protein kinase 1 (Homo sapiens) (UniProt Q9BXA7); assay: Residual activity of TSSK1 at 10 uM by microplate scintillation counting
T1 sequence (whole entry): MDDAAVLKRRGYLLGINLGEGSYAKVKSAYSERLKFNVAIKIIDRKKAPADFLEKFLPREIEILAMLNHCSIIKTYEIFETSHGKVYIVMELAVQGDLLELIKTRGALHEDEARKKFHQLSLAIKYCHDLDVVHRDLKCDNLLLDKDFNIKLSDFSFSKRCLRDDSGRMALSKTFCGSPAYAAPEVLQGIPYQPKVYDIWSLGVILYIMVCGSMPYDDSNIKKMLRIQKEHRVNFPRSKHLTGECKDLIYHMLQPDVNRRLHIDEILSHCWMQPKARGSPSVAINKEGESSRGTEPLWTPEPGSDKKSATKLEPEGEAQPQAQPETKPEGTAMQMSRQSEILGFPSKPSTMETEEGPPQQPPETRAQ

[2] = target: Dual specificity mitogen-activated protein kinase kinase 1 (Homo sapiens) (UniProt Q02750); assay: Residual activity of wild type MEK1 at 10 uM by microplate scintillation counting
[3] = target: Myosin light chain kinase 2, skeletal/cardiac muscle (Homo sapiens) (UniProt Q9H1R3); assay: Residual activity of MYLK2 at 1 uM by microplate scintillation counting
[4] = target: Casein kinase I isoform gamma-1 (Homo sapiens) (UniProt Q9HCP0); assay: Residual activity of CK1gamma1 at 10 uM by microplate scintillation counting
[5] = target: Mast/stem cell growth factor receptor Kit (Homo sapiens) (UniProt P10721); assay: Residual activity of wild type KIT at 0.1 uM by microplate scintillation counting
[6] = target: Ephrin type-A receptor 4 (Homo sapiens) (UniProt P54764); assay: Residual activity of EPHA4 at 0.1 uM by microplate scintillation counting
[7] = target: Insulin receptor (Homo sapiens) (UniProt P06213); assay: Residual activity of INSR at 1 uM by microplate scintillation counting
[8] = target: Insulin-like growth factor 1 receptor (Homo sapiens) (UniProt P08069); assay: Residual activity of IGF1R at 0.1 uM by microplate scintillation counting
[9] = target: Protein kinase C gamma type (Homo sapiens) (UniProt P05129); assay: Residual activity of PKCgamma at 10 uM by microplate scintillation counting
[10] = target: G protein-coupled receptor kinase 5 (Homo sapiens) (UniProt P34947); assay: Residual activity of GRK5 at 10 uM by microplate scintillation counting
[11] = target: Protein kinase C theta type (Homo sapiens) (UniProt Q04759); assay: Residual activity of PKCtheta at 10 uM by microplate scintillation counting
[12] = target: T2, Aurora kinase C (Homo sapiens) (UniProt Q9UQB9); assay: Residual activity of Aurora-C at 0.1 uM by microplate scintillation counting
T2 sequence (whole entry): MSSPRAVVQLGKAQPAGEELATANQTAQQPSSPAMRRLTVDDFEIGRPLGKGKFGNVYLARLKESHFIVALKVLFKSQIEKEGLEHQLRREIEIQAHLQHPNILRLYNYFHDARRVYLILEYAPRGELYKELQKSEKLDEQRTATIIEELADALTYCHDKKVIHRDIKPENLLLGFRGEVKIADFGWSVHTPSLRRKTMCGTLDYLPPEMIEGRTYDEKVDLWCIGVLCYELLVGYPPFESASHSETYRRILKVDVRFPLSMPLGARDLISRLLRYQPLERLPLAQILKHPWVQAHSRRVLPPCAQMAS

[13] = test system: Serine/threonine-protein kinase B-raf (Homo sapiens), P15056 [V600E]; assay: Residual activity of B-RAF V600E mutant at 0.1 uM by microplate scintillation counting
[14] = target: Tyrosine-protein kinase JAK2 (Homo sapiens) (UniProt O60674); assay: Residual activity of JAK2 at 10 uM by microplate scintillation counting
[15] = target: T3, Serine/threonine-protein kinase BRSK1 (Homo sapiens) (UniProt Q8TDC3); assay: Residual activity of BRSK1 at 0.1 uM by microplate scintillation counting
T3 sequence (whole entry): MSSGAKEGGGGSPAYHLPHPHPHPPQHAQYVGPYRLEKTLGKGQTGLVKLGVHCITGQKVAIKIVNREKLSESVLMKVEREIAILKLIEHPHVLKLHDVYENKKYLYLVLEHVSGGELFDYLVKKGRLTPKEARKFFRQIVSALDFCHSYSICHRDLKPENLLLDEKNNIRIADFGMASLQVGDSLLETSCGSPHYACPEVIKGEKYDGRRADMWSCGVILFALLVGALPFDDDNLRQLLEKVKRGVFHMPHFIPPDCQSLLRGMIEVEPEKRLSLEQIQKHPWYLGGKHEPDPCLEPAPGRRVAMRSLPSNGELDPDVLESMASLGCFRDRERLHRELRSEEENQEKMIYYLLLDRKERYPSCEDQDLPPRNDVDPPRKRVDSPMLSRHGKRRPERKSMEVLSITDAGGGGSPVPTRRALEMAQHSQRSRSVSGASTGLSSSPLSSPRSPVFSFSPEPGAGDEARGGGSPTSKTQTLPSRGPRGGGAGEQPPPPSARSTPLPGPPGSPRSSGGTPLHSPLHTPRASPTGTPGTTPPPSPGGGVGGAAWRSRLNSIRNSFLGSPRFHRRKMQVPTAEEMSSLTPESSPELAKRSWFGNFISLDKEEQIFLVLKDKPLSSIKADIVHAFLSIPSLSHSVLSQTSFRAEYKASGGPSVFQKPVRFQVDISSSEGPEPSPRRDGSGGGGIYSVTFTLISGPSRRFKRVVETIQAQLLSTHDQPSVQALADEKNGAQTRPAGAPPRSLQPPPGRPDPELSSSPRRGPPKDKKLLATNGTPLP

[16] = target: T1, Testis-specific serine/threonine-protein kinase 1 (Homo sapiens); assay: Residual activity of TSSK1 at 0.1 uM by microplate scintillation counting
[17] = target: CDK1/Cyclin A (Homo sapiens) (UniProt P06493+P20248); assay: Residual activity of CDK1/Cyclin A at 0.1 uM by microplate scintillation counting; assay type: protein-complex assay
[18] = target: Glycogen synthase kinase-3 alpha (Homo sapiens) (UniProt P49840); assay: Residual activity of GSK3alpha at 1 uM by microplate scintillation counting

Chain of Protein kinase C theta type (Homo sapiens) (Q04759 whole entry, looked up): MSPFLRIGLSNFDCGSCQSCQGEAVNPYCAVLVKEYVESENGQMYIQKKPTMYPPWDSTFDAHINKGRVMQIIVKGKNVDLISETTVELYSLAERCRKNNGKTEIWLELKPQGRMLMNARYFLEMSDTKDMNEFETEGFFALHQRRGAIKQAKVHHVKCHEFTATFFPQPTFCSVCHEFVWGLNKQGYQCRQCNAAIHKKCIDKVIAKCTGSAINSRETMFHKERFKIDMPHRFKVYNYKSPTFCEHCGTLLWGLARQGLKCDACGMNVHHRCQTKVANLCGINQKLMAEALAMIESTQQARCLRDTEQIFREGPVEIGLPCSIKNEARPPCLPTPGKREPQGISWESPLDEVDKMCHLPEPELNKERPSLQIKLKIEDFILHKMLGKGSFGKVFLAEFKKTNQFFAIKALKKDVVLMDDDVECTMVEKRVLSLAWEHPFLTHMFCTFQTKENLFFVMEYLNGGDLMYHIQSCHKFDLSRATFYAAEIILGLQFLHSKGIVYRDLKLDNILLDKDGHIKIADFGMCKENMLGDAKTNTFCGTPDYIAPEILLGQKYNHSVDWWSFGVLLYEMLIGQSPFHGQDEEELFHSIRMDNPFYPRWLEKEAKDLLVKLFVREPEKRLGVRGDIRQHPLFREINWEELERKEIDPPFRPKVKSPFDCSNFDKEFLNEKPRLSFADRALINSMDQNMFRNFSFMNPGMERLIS
Chain of Insulin receptor (Homo sapiens) (P06213 28-758 limits assumed): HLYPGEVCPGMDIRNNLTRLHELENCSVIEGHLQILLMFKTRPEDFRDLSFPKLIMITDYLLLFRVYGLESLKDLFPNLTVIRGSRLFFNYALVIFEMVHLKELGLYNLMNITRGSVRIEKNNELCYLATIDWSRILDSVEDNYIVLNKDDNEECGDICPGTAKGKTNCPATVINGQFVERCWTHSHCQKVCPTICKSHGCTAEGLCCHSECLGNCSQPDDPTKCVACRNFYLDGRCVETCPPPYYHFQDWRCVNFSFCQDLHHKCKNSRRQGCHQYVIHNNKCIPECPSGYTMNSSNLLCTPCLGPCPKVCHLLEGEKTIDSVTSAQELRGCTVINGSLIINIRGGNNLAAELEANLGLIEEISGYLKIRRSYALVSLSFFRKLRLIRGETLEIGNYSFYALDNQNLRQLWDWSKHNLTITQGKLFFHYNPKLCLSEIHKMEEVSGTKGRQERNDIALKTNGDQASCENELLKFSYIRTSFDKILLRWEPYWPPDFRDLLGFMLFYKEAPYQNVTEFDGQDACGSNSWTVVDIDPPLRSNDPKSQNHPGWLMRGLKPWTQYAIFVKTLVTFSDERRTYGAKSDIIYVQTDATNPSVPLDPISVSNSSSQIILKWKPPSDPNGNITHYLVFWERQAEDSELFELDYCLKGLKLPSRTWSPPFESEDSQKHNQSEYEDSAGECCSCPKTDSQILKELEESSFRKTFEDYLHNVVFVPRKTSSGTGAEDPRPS
Chain of Insulin receptor (Homo sapiens) (P06213 763-1382 limits assumed): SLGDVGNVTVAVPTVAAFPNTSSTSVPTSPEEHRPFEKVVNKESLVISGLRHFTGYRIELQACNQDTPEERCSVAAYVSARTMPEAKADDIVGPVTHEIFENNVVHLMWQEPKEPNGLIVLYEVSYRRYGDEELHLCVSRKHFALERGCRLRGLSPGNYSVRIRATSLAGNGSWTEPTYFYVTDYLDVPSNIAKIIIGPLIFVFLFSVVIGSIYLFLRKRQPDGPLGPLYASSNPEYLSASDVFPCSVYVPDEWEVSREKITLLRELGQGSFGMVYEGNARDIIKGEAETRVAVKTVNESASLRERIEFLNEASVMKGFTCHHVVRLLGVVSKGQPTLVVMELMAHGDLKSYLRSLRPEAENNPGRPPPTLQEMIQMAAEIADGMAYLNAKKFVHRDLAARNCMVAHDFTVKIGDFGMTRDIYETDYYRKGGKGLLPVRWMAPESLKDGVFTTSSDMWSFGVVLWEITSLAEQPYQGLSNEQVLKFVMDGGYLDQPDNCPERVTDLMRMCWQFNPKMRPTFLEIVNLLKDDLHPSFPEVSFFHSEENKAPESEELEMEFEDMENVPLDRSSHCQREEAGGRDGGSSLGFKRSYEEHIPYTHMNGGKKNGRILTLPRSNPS
Chain of Ephrin type-A receptor 4 (Homo sapiens) (P54764 whole entry): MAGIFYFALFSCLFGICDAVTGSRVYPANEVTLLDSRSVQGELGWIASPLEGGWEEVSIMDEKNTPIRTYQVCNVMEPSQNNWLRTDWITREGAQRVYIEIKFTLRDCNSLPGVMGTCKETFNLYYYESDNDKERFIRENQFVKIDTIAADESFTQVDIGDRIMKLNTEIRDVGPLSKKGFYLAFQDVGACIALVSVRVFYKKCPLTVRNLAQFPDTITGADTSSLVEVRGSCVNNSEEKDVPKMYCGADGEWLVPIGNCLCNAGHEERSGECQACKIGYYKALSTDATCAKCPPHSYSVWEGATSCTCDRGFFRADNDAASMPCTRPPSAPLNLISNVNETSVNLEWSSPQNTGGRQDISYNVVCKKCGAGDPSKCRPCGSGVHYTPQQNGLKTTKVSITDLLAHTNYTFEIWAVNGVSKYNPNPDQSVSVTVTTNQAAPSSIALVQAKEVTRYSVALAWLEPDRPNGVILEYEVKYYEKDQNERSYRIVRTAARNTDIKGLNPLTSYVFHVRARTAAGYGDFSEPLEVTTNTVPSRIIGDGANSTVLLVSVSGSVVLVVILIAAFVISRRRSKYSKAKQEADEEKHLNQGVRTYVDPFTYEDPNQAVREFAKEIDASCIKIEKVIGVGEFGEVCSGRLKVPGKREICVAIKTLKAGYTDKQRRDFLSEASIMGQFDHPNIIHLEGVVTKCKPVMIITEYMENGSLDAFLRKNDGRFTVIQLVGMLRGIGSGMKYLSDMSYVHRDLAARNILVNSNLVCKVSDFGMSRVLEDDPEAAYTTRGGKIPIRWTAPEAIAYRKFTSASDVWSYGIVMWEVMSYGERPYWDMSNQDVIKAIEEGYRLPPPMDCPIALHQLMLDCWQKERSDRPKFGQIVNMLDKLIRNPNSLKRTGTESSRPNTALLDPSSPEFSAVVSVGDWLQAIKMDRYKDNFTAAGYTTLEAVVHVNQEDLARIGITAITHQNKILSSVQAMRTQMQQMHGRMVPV
Chain of Casein kinase I isoform gamma-1 (Homo sapiens) (Q9HCP0 whole entry, looked up, canonical isoform): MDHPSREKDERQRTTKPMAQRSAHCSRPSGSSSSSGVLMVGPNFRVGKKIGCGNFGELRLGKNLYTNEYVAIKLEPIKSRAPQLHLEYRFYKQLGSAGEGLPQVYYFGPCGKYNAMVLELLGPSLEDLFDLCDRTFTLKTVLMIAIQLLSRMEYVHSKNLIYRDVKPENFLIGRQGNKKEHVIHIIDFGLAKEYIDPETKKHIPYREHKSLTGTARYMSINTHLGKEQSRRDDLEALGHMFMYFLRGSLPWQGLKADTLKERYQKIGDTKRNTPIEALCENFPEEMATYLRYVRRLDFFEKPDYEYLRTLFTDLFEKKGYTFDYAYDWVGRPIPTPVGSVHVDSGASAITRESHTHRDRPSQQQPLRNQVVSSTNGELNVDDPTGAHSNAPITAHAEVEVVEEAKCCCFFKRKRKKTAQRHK
Chain of Myosin light chain kinase 2, skeletal/cardiac muscle (Homo sapiens) (Q9H1R3 whole entry, canonical isoform): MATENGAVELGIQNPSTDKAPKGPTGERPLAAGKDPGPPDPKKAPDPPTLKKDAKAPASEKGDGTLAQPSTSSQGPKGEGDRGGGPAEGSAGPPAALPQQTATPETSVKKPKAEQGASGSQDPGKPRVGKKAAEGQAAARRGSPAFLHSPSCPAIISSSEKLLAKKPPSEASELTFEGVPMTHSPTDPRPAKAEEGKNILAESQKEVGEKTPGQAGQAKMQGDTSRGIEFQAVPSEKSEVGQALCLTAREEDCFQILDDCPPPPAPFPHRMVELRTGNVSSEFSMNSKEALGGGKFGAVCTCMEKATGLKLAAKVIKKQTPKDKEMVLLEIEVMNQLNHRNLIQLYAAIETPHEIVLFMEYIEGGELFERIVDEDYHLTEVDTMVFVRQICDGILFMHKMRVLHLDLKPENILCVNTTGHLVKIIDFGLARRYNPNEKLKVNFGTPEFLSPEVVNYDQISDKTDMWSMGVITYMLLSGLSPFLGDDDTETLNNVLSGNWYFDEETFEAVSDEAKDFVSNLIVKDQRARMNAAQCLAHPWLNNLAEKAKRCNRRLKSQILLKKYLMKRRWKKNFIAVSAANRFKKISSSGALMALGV

residual activity [1]	residual activity [2]	residual activity [3]	residual activity [4]	residual activity [5]	residual activity [6]	residual activity [7]	residual activity [8]	residual activity [9]	residual activity [10]	residual activity [11]	residual activity [12]	residual activity [13]	residual activity [14]	residual activity [15]	residual activity [16]	residual activity [17]	residual activity [18]	SMILES
322%	15%	140%	200%	101%	93%	95%	114%	33%	81%	64%	42%	92%	67%	94%	49%	109%	83%	COc1cc2c(Oc3ccc(-c4nc5ccccc5s4)cc3)ncnc2cc1OCCCN1CCCC1
397%	3%	99%	229%	96%	93%	97%	113%	58%	84%	87%	48%	96%	60%	85%	65%	99%	96%	COc1cc2c(Oc3ccc(-c4nc5ccccc5s4)cc3F)ncnc2cc1OCCCN1CCN(C)CC1
406%	26%	81%	256%	96%	103%	98%	99%	80%	76%	96%	42%	91%	67%	95%	58%	94%	87%	COc1cc2c(Oc3ccc(-c4nc5ccccc5s4)cc3)ncnc2cc1OCCCN1CCN(C)CC1
